# Assays:
# A549 = experiment: Cytotoxicity against human A549 cells assessed as reduction in cell viability by MTT assay; assay type: functional, cell-based
# Vero = experiment: Cytotoxicity against African green monkey Vero cells assessed as reduction in cell viability by MTT assay; assay type: cell-based; conditions: Chlorocebus sabaeus
# HT-29 = experiment: Cytotoxicity against human HT-29 cells assessed as reduction in cell viability by MTT assay; assay type: functional, cell-based
# HeLa = experiment: Cytotoxicity against human HeLa cells assessed as reduction in cell viability by MTT assay; assay type: functional, cell-based
# KB = experiment: Cytotoxicity against human KB cells assessed as reduction in cell viability by MTT assay; assay type: functional, cell-based
SMILES,IC50 (A549) [nM],IC50 (Vero) [nM],IC50 (HT-29) [nM],IC50 (HeLa) [nM],IC50 (KB) [nM]
C[C@H]1[C@H](C)CC[C@]2(C(=O)O)CC[C@]3(COC(=O)/C=C/c4ccc(O)cc4)C(=CC[C@@H]4[C@@]5(C)CC[C@H](O)C(C)(C)[C@@H]5CC[C@]43C)[C@H]12,2200,,,,
CO[C@H]1[C@@H](O)[C@H](O[C@H]2CC[C@@]3(C)[C@H](CC[C@@H]4[C@@H]3CC[C@]3(C)[C@@H](C5=CC(=O)OC5)[C@@H](O)C[C@]43O)C2)O[C@@H](C)[C@@H]1O[C@@H]1O[C@H](CO[C@@H]2O[C@H](CO)[C@@H](O)[C@H](O)[C@H]2O)[C@@H](O)[C@H](O)[C@H]1O,,> 10000,> 10000,> 10000,> 10000
CO[C@H]1[C@@H](O)[C@H](O[C@H]2CC[C@@]3(C)[C@H](CC[C@@H]4[C@@H]3CC[C@]3(C)[C@@H]([C@H]5COC(=O)C5)CC[C@]43O)C2)O[C@@H](C)[C@@H]1O[C@@H]1O[C@H](CO[C@@H]2O[C@H](CO)[C@@H](O)[C@H](O)[C@H]2O)[C@@H](O)[C@H](O)[C@H]1O,,> 10000,> 10000,> 10000,> 10000
CO[C@@H]1[C@@H](O[C@@H]2O[C@H](CO[C@@H]3O[C@H](CO)[C@@H](O)[C@H](O)[C@H]3O)[C@@H](O)[C@H](O)[C@H]2O)[C@H](C)O[C@@H](O[C@H]2CC[C@@]3(C)[C@H](CC[C@@H]4[C@@H]3CC[C@]3(C)[C@@H]([C@H]5COC(=O)C5)CC[C@]43O)C2)[C@@H]1OC(C)=O,,> 10000,> 10000,> 10000,> 10000
CO[C@H]1[C@@H](O)[C@H](C)O[C@@H](O[C@H]2CC[C@@]3(C)[C@H](CC[C@@H]4[C@@H]3CC[C@]3(C)[C@@H](C5=CC(=O)OC5)[C@@H](O)C[C@]43O)C2)[C@@H]1O,,20,300,6200,500
CO[C@H]1[C@@H](O)[C@H](O[C@H]2CC[C@@]3(C)[C@H](CC[C@@H]4[C@@H]3CC[C@]3(C)[C@@H]([C@H]5COC(=O)C5)CC[C@]43O)C2)O[C@@H](C)[C@@H]1O[C@@H]1O[C@H](CO)[C@@H](O)[C@H](O)[C@H]1O,,> 10000,> 10000,6200,6600
CO[C@@H]1[C@@H](O)[C@H](C)O[C@@H](O[C@H]2CC[C@@]3(C)[C@H](CC[C@@H]4[C@@H]3CC[C@]3(C)[C@@H](C5=CC(=O)OC5)[C@@H](O)C[C@]43O)C2)[C@@H]1O,,1300,200,80,1700
CO[C@H]1[C@@H](O)[C@H](C)O[C@@H](O[C@H]2CC[C@@]3(C)[C@H](CC[C@@H]4[C@@H]3CC[C@]3(C)[C@@H]([C@H]5COC(=O)C5)CC[C@]43O)C2)[C@@H]1O,,9200,4100,9300,1900
CO[C@@H]1[C@@H](O)[C@H](O[C@H]2CC[C@@]3(C)[C@H](CC[C@@H]4[C@@H]3CC[C@]3(C)[C@@H]([C@H]5COC(=O)C5)CC[C@]43O)C2)O[C@@H](C)[C@@H]1O[C@@H]1O[C@H](CO)[C@@H](O)[C@H](O)[C@H]1O,,500,7100,1100,1700
C[C@H]1[C@H](C)CC[C@]2(C(=O)O)CC[C@]3(COC(=O)/C=C\c4ccc(O)cc4)C(=CC[C@@H]4[C@@]5(C)CC[C@H](O)C(C)(C)[C@@H]5CC[C@]43C)[C@H]12,,,,6100,
CO[C@@H]1[C@@H](O)[C@H](O[C@H]2CC[C@@]3(C)[C@H](CC[C@@H]4[C@@H]3CC[C@]3(C)[C@@H](C5=CC(=O)OC5)[C@@H](O)C[C@]43O)C2)O[C@@H](C)[C@@H]1O[C@@H]1O[C@H](CO[C@@H]2O[C@H](CO)[C@@H](O)[C@H](O)[C@H]2O)[C@@H](O)[C@H](O)[C@H]1O,,> 10000,> 10000,> 10000,> 10000
CC1(C)CC[C@]2(C(=O)O)CC[C@]3(COC(=O)/C=C\c4ccc(O)cc4)C(=CC[C@@H]4[C@@]5(C)CC[C@H](O)C(C)(C)[C@@H]5CC[C@]43C)[C@@H]2C1,,,600,,
CO[C@@H]1[C@@H](O)[C@H](C)O[C@@H](O[C@H]2CC[C@@]3(C)[C@H](CC[C@@H]4[C@@H]3CC[C@]3(C)[C@@H]([C@H]5COC(=O)C5)CC[C@]43O)C2)[C@@H]1O,,600,200,500,30
COc1cccc2c1C(=O)c1c(O)c3c(c(O)c1C2=O)C[C@@](O)(C(=O)CO)C[C@@H]3O[C@H]1C[C@H](N)[C@H](O)[C@H](C)O1 [DOXORUBICIN],,1300,900,140,200

# Source: ChEMBL document CHEMBL4414675, “Cytotoxic 20,22-Dihydrodigitoxigenin Glycosides and Other Constituents of Vallaris glabra Stems” (J Nat Prod, 2019)
